Experimental data published in patent US20230123334A1, “AMINO LIPID COMPOUND, PREPARATION METHOD THEREFOR, AND APPLICATION THEREOF” (SHENZHEN SHENXIN BIOTECHNOLOGY CO., LTD., priority 2020, published 2023).

What follows are compounds tested on HEK293 cells (assay: Preliminary screening as DNA vectors, GFP transfection of HEK293 cells). Details: amino lipid/DOPE liposome with 75 ng plasmid DNA (psin-EGFP-IRES-Puro); number of GFP-expressing cells divided by total nuclei (Hoechst).
Assay type: cell-based
Method in brief: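 HEK293 cells in DMEM/10% FBS transfected with 75 ng EGFP plasmid per well complexed with amino lipid/DOPE liposomes in pH 5.6 sodium acetate. Hoechst nuclear stain added 20-24 h post-transfection, then cells cultured another 20-24 h. Confocal imaging gives GFP-positive cells as % of total nuclei.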

Q: How did the “Absolute DNA transfection efficiency in HEK293 cells” value (shortened to “Absolute DNA transfection efficiency”) turn out when `CCCCCCCCCCCCCCCSc1nc(NCCN2CCCC2)nc(SCCCCCCC)n1` [S7S15 D3] was run?
A: Its value is 4.6%.

Q: Which “Absolute DNA transfection efficiency” value does the source give for `CCCCCCCCCCCCCCCSc1nc(NCCN2CCCCC2)nc(SCCCCCCC)n1` [S7S15 D4] here?
A: The value was 11.6%.

Q: With `CCCCCCCCCCCCCCCSc1nc(NCCN2CCN(C)CC2)nc(SCCCCCCC)n1` [S7S15 D5] as the compound, how does the “Absolute DNA transfection efficiency” value read?
A: The value was 14.9%.

Q: Which “Absolute DNA transfection efficiency” value does the source give for `CCCCCCCCCCCCCCCSc1nc(NCCCN(C)C)nc(SCCCCCCC)n1` [S7S15 D6] here?
A: Its value is 7.6%.

Q: `CCCCCCCCCCCCCCCSc1nc(NCCN(CC)CC)nc(SCCCCCCC)n1` [S7S15 D7] was tested. Which “Absolute DNA transfection efficiency” value did it give?
A: The value was 5.0%.

Q: With `CCCCCCCCCCCCCCCSc1nc(NCCCN2CCOCC2)nc(SCCCCCCC)n1` [S7S15 D8] as the compound, how does the “Absolute DNA transfection efficiency” value read?
A: Its value is 10.9%.

Q: How did the “Absolute DNA transfection efficiency” value turn out when `CCCCCCCCCCCCCCCSc1nc(NCCCN2CCN(C)CC2)nc(SCCCCCCC)n1` [S7S15 D9] was run?
A: The value was 1.6%.

Q: How did the “Absolute DNA transfection efficiency” value turn out when `CCCCCCCCCCCCCCCSc1nc(NCC2CCN(C)CC2)nc(SCCCCCCC)n1` [S7S15 D10] was run?
A: Its value is 33.3%.

Q: How did the “Absolute DNA transfection efficiency” value turn out when `CCCCCCCCCCCCCCCCSc1nc(NCCN(C)C)nc(SCCCCCCC)n1` [S7S16 D1] was run?
A: The value was 10.0%.

Q: For `CCCCCCCCCCCCCCCCSc1nc(NCCN2CCOCC2)nc(SCCCCCCC)n1` [S7S16 D2], which “Absolute DNA transfection efficiency” value is on record?
A: The value was 17.6%.

Q: Which “Absolute DNA transfection efficiency” value does the source give for `CCCCCCCCCCCCCCCCSc1nc(NCCN2CCCC2)nc(SCCCCCCC)n1` [S7S16 D3] here?
A: Its value is 6.3%.

Q: For `CCCCCCCCCCCCCCCCSc1nc(NCCN2CCCCC2)nc(SCCCCCCC)n1` [S7S16 D4], which “Absolute DNA transfection efficiency” value is on record?
A: Its value is 10.9%.

Q: Which “Absolute DNA transfection efficiency” value does the source give for `CCCCCCCCCCCCCCCCSc1nc(NCCN2CCN(C)CC2)nc(SCCCCCCC)n1` [S7S16 D5] here?
A: The value was 7.9%.

Q: Which “Absolute DNA transfection efficiency” value does the source give for `CCCCCCCCCCCCCCCCSc1nc(NCCCN(C)C)nc(SCCCCCCC)n1` [S7S16 D6] here?
A: Its value is 9.0%.

Q: Which “Absolute DNA transfection efficiency” value does the source give for `CCCCCCCCCCCCCCCCSc1nc(NCCN(CC)CC)nc(SCCCCCCC)n1` [S7S16 D7] here?
A: Its value is 3.5%.

Q: `CCCCCCCCCCCCCCCCSc1nc(NCCCN2CCOCC2)nc(SCCCCCCC)n1` [S7S16 D8] was tested. Which “Absolute DNA transfection efficiency” value did it give?
A: Its value is 12.8%.

Q: Which “Absolute DNA transfection efficiency” value does the source give for `CCCCCCCCCCCCCCCCSc1nc(NCCCN2CCN(C)CC2)nc(SCCCCCCC)n1` [S7S16 D9] here?
A: Its value is 2.3%.

Q: `CCCCCCCCCCCCCCCCSc1nc(NCC2CCN(C)CC2)nc(SCCCCCCC)n1` [S7S16 D10] was tested. Which “Absolute DNA transfection efficiency” value did it give?
A: Its value is 22.2%.

Q: Which “Absolute DNA transfection efficiency” value does the source give for `CCCCCCCCCCCCCCCCCCSc1nc(NCCN(C)C)nc(SCCCCCCC)n1` [S7S18 D1] here?
A: The value was 3.7%.

Q: `CCCCCCCCCCCCCCCCCCSc1nc(NCCN2CCOCC2)nc(SCCCCCCC)n1` [S7S18 D2] was tested. Which “Absolute DNA transfection efficiency” value did it give?
A: Its value is 7.1%.

Q: With `CCCCCCCCCCCCCCCCCCSc1nc(NCCN2CCCC2)nc(SCCCCCCC)n1` [S7S18 D3] as the compound, how does the “Absolute DNA transfection efficiency” value read?
A: Its value is 11.2%.

Q: `CCCCCCCCCCCCCCCCCCSc1nc(NCCN2CCCCC2)nc(SCCCCCCC)n1` [S7S18 D4] was tested. Which “Absolute DNA transfection efficiency” value did it give?
A: Its value is 8.3%.

Q: For `CCCCCCCCCCCCCCCCCCSc1nc(NCCN2CCN(C)CC2)nc(SCCCCCCC)n1` [S7S18 D5], which “Absolute DNA transfection efficiency” value is on record?
A: Its value is 14.2%.

Q: For `CCCCCCCCCCCCCCCCCCSc1nc(NCCCN(C)C)nc(SCCCCCCC)n1` [S7S18 D6], which “Absolute DNA transfection efficiency” value is on record?
A: The value was 5.5%.

Q: For `CCCCCCCCCCCCCCCCCCSc1nc(NCCN(CC)CC)nc(SCCCCCCC)n1` [S7S18 D7], which “Absolute DNA transfection efficiency” value is on record?
A: Its value is 7.3%.

Q: For `CCCCCCCCCCCCCCCCCCSc1nc(NCCCN2CCOCC2)nc(SCCCCCCC)n1` [S7S18 D8], which “Absolute DNA transfection efficiency” value is on record?
A: The value was 16.1%.

Q: `CCCCCCCCCCCCCCCCCCSc1nc(NCCCN2CCN(C)CC2)nc(SCCCCCCC)n1` [S7S18 D9] was tested. Which “Absolute DNA transfection efficiency” value did it give?
A: The value was 13.1%.

Q: Which “Absolute DNA transfection efficiency” value does the source give for `CCCCCCCCCCCCCCCCCCSc1nc(NCC2CCN(C)CC2)nc(SCCCCCCC)n1` [S7S18 D10] here?
A: The value was 48.9%.

Q: For `CCCCCCCCCCCCN(CCCCCCCCCCCC)c1nc(NCCN(C)C)nc(SCCCCCCC)n1` [S7^2N12 D1], which “Absolute DNA transfection efficiency” value is on record?
A: The value was 0.2%.

Q: Which “Absolute DNA transfection efficiency” value does the source give for `CCCCCCCCCCCCN(CCCCCCCCCCCC)c1nc(NCCN2CCOCC2)nc(SCCCCCCC)n1` [S7^2N12 D2] here?
A: The value was 0.0%.

Q: With `CCCCCCCCCCCCN(CCCCCCCCCCCC)c1nc(NCCN2CCCC2)nc(SCCCCCCC)n1` [S7^2N12 D3] as the compound, how does the “Absolute DNA transfection efficiency” value read?
A: Its value is 0.1%.

Q: `CCCCCCCCCCCCN(CCCCCCCCCCCC)c1nc(NCCN2CCCCC2)nc(SCCCCCCC)n1` [S7^2N12 D4] was tested. Which “Absolute DNA transfection efficiency” value did it give?
A: The value was 0.0%.

Q: Which “Absolute DNA transfection efficiency” value does the source give for `CCCCCCCCCCCCN(CCCCCCCCCCCC)c1nc(NCCN2CCN(C)CC2)nc(SCCCCCCC)n1` [S7^2N12 D5] here?
A: Its value is 0.2%.

Q: How did the “Absolute DNA transfection efficiency” value turn out when `CCCCCCCCCCCCN(CCCCCCCCCCCC)c1nc(NCCCN(C)C)nc(SCCCCCCC)n1` [S7^2N12 D6] was run?
A: Its value is 0.6%.

Q: Which “Absolute DNA transfection efficiency” value does the source give for `CCCCCCCCCCCCN(CCCCCCCCCCCC)c1nc(NCCN(CC)CC)nc(SCCCCCCC)n1` [S7^2N12 D7] here?
A: Its value is 0.2%.

Q: With `CCCCCCCCCCCCN(CCCCCCCCCCCC)c1nc(NCCCN2CCOCC2)nc(SCCCCCCC)n1` [S7^2N12 D8] as the compound, how does the “Absolute DNA transfection efficiency” value read?
A: Its value is 0.0%.

Q: With `CCCCCCCCCCCCN(CCCCCCCCCCCC)c1nc(NCCCN2CCN(C)CC2)nc(SCCCCCCC)n1` [S7^2N12 D9] as the compound, how does the “Absolute DNA transfection efficiency” value read?
A: The value was 0.3%.

Q: How did the “Absolute DNA transfection efficiency” value turn out when `CCCCCCCCCCCCN(CCCCCCCCCCCC)c1nc(NCC2CCN(C)CC2)nc(SCCCCCCC)n1` [S7^2N12 D10] was run?
A: Its value is 0.5%.

Q: For `CCCCCCCCSc1nc(NCCCCCC)nc(NCCN(C)C)n1` [S8N6 D1], which “Absolute DNA transfection efficiency” value is on record?
A: The value was 3.4%.

Q: How did the “Absolute DNA transfection efficiency” value turn out when `CCCCCCCCSc1nc(NCCCCCC)nc(NCCN2CCOCC2)n1` [S8N6 D2] was run?
A: The value was 0.2%.

Q: How did the “Absolute DNA transfection efficiency” value turn out when `CCCCCCCCSc1nc(NCCCCCC)nc(NCCN2CCCC2)n1` [S8N6 D3] was run?
A: The value was 3.2%.

Q: How did the “Absolute DNA transfection efficiency” value turn out when `CCCCCCCCSc1nc(NCCCCCC)nc(NCCN2CCCCC2)n1` [S8N6 D4] was run?
A: Its value is 2.6%.

Q: Which “Absolute DNA transfection efficiency” value does the source give for `CCCCCCCCSc1nc(NCCCCCC)nc(NCCN2CCN(C)CC2)n1` [S8N6 D5] here?
A: The value was 5.0%.

Q: `CCCCCCCCSc1nc(NCCCCCC)nc(NCCCN(C)C)n1` [S8N6 D6] was tested. Which “Absolute DNA transfection efficiency” value did it give?
A: The value was 4.3%.

Q: `CCCCCCCCSc1nc(NCCCCCC)nc(NCCN(CC)CC)n1` [S8N6 D7] was tested. Which “Absolute DNA transfection efficiency” value did it give?
A: The value was 1.8%.

Q: Which “Absolute DNA transfection efficiency” value does the source give for `CCCCCCCCSc1nc(NCCCCCC)nc(NCCCN2CCOCC2)n1` [S8N6 D8] here?
A: Its value is 0.0%.

Q: `CCCCCCCCSc1nc(NCCCCCC)nc(NCCCN2CCN(C)CC2)n1` [S8N6 D9] was tested. Which “Absolute DNA transfection efficiency” value did it give?
A: Its value is 2.2%.

Q: With `CCCCCCCCSc1nc(NCCCCCC)nc(NCC2CCN(C)CC2)n1` [S8N6 D10] as the compound, how does the “Absolute DNA transfection efficiency” value read?
A: Its value is 0.5%.

Q: `CCCCCCCCSc1nc(NCCCCCCC)nc(NCCN(C)C)n1` [S8N7 D1] was tested. Which “Absolute DNA transfection efficiency” value did it give?
A: The value was 3.0%.

Q: For `CCCCCCCCSc1nc(NCCCCCCC)nc(NCCN2CCOCC2)n1` [S8N7 D2], which “Absolute DNA transfection efficiency” value is on record?
A: Its value is 0.4%.

Q: With `CCCCCCCCSc1nc(NCCCCCCC)nc(NCCN2CCCC2)n1` [S8N7 D3] as the compound, how does the “Absolute DNA transfection efficiency” value read?
A: The value was 3.9%.

Q: For `CCCCCCCCSc1nc(NCCCCCCC)nc(NCCN2CCCCC2)n1` [S8N7 D4], which “Absolute DNA transfection efficiency” value is on record?
A: Its value is 3.8%.

Q: For `CCCCCCCCSc1nc(NCCCCCCC)nc(NCCN2CCN(C)CC2)n1` [S8N7 D5], which “Absolute DNA transfection efficiency” value is on record?
A: The value was 3.6%.

Q: For `CCCCCCCCSc1nc(NCCCCCCC)nc(NCCCN(C)C)n1` [S8N7 D6], which “Absolute DNA transfection efficiency” value is on record?
A: The value was 8.5%.
